Measurements published in US5527781A, “4-O-(aminoglycosyl)- or 4,6-di-O-(aminoglycosyl)-2,5-dideoxy-5,5-difluorostreptamine derivatives” (Zaidan Hojin Biseibutsu Kagaku Kenkyu Kai, priority 1990, dated 1996).
In brackets after ≈: the same amount, converted by molar mass.

Legend:
in vivo = settings: mouse, iv
Source text: Further, in order to estimate acute toxicity of the compound of the general formula (I) according to this invention, some examples of the compounds of this invention were independently dissolved in water to prepare aqueous solutions (as adjusted to pH 7 by addition of hydrochloric acid). […] The tested compounds of this invention are expressed by the same abbreviations as in Table 1. […] The comparative compounds as tested are also expressed by the same abbreviations as in Table 1.

[1] = tested on: Staphylococcus aureus 209P; experiment: MIC, standard serial dilution method; assay type: cell-based; settings: Mueller-Hinton agar, 37° C
[2] = tested on: Staphylococcus aureus Ap01; experiment: MIC, standard serial dilution method; assay type: cell-based; settings: resistance mechanism ANT(4'), Mueller-Hinton agar, 37° C
Bacillus subtilis PCI219 = experiment: MIC, standard serial dilution method; assay type: cell-based; settings: Mueller-Hinton agar, 37° C
[3] = tested on: Corynebacterium bovis 1810; experiment: MIC, standard serial dilution method; assay type: cell-based; settings: Mueller-Hinton agar, 37° C
Escherichia coli K-12 = experiment: MIC, standard serial dilution method; assay type: cell-based; settings: K12; Escherichia coli K-12; Mueller-Hinton agar, 37° C; read-out: MIC
Escherichia coli K-12 R5 = experiment: microbe, parasite or virus in culture; assay type: cell-based; settings: K12R5
[4] = tested on: Escherichia coli K-12 ML 1629; experiment: microbe, parasite or virus in culture; assay type: cell-based; settings: K12ML1629; Escherichia coli K-12 ML 1629; resistance mechanism APH(3')-I; Mueller-Hinton agar, 37° C; read-out: MIC
[5] = tested on: Escherichia coli K-12 LA 290 R55; experiment: microbe, parasite or virus in culture; assay type: cell-based; settings: K12LA290R55; Escherichia coli K-12 LA 290 R55; resistance mechanism ANT(2"); Mueller-Hinton agar, 37° C
Escherichia coli JR225 = experiment: microbe, parasite or virus in culture; assay type: cell-based; settings: resistance mechanism AAC(3), Mueller-Hinton agar, 37° C
[6] = tested on: Escherichia coli JR66/W677; experiment: microbe, parasite or virus in culture; assay type: cell-based; settings: resistance mechanism APH(3')-II, ANT(2"), Mueller-Hinton agar, 37° C
Mycobacterium 607 = experiment: MIC, standard serial dilution method; assay type: cell-based; settings: Mueller-Hinton agar, 37° C
[7] = tested on: Klebsiella pneumoniae 22#3038; experiment: MIC, standard serial dilution method; assay type: cell-based; settings: resistance mechanism APH(3')-II, ANT(2"), Mueller-Hinton agar, 37° C
Proteus rettgeri GN 311 = experiment: MIC, standard serial dilution method; assay type: cell-based; settings: Providencia rettgeri, GN311; Proteus rettgeri GN 311; Mueller-Hinton agar, 37° C; read-out: MIC
Serratia marcescens = experiment: MIC, standard serial dilution method; assay type: cell-based; settings: Mueller-Hinton agar, 37° C
Providencia sp. Pv 16 = experiment: MIC, standard serial dilution method; assay type: cell-based; settings: SP.PV16, resistance mechanism AAC(2'), Mueller-Hinton agar, 37° C
[8] = tested on: Pseudomonas aeruginosa A3; experiment: MIC, standard serial dilution method; assay type: cell-based; settings: Mueller-Hinton agar, 37° C
[9] = tested on: Pseudomonas aeruginosa GN 315; experiment: MIC, standard serial dilution method; assay type: cell-based; settings: GN315; Pseudomonas aeruginosa GN 315; resistance mechanism AAC(6'); Mueller-Hinton agar, 37° C; read-out: MIC
[10] = Escherichia coli K-12 R5, resistance mechanism AAC(6'), Mueller-Hinton agar, 37° C

Row | Compound | LD50 (in vivo) | MIC [1] | MIC [2] | MIC (Bacillus subtilis PCI219) | MIC [3] | MIC (Escherichia coli K-12) | MIC (Escherichia coli K-12 R5; Escherichia coli) | MIC [4] | MIC [5] | MIC (Escherichia coli JR225) | MIC [6] | MIC (Mycobacterium 607) | MIC [7] | MIC (Proteus rettgeri GN 311) | MIC (Serratia marcescens) | MIC (Providencia sp. Pv 16) | MIC [8] | MIC [9] | MIC (Escherichia coli K-12 R5; [10]) | LD50 (in vivo; pH 7)
1 | NC[C@H]1O[C@H](O[C@H]2[C@H](F)[C@@H](O[C@H]3O[C@H](CO)[C@@H](O)[C@H](N)[C@H]3O)[C@H](N)C[C@@H]2N)[C@H](N)[C@@H](O)[C@@H]1O [5-deoxy-5-fluorokanamycin B, reference compound] | ~135 mg/kg | – | – | – | – | – | – | – | – | – | – | – | – | – | – | – | – | – | – | –
2 | CN[C@@H]1[C@@H](O)[C@@H](O[C@H]2[C@H](NC(=O)[C@@H](O)CCN)C[C@H](N)[C@@H](O[C@H]3O[C@H]([C@@H](C)NC)CC[C@H]3N)C2(F)F)OC[C@]1(C)O [5FF-Genta-C1-AHB, 1-N-[(S)-4-amino-2-hydroxybutyryl]-5-deoxy-5,5-difluorogentamicin C1] | – | 1.56 µg/mL (≈ 2.61 µM) | 25 µg/mL (≈ 41.8 µM) | 1.56 µg/mL (≈ 2.61 µM) | 0.78 µg/mL (≈ 1.3 µM) | < 0.2 µg/mL | 0.78 µg/mL (≈ 1.3 µM) | 1.56 µg/mL (≈ 2.61 µM) | 0.39 µg/mL (≈ 0.651 µM) | < 0.2 µg/mL | 3.12 µg/mL (≈ 5.21 µM) | 3.12 µg/mL (≈ 5.21 µM) | 1.56 µg/mL (≈ 2.61 µM) | 1.56 µg/mL (≈ 2.61 µM) | 3.12 µg/mL (≈ 5.21 µM) | 6.25 µg/mL (≈ 10.4 µM) | 6.25 µg/mL (≈ 10.4 µM) | 100 µg/mL (≈ 167 µM) | – | –
3 | CN[C@@H]1[C@@H](O)[C@@H](O[C@H]2[C@H](NC(=O)[C@@H](O)CCN)C[C@H](N)[C@@H](O[C@H]3O[C@H]([C@@H](C)N)CC[C@H]3N)C2(F)F)OC[C@]1(C)O [5FF-Genta-C2-AHB, 1-N-[(S)-4-amino-2-hydroxybutyryl]-5-deoxy-5,5-difluorogentamicin C2] | – | 0.78 µg/mL (≈ 1.33 µM) | 12.5 µg/mL (≈ 21.4 µM) | 0.2 µg/mL (≈ 0.342 µM) | 0.2 µg/mL (≈ 0.342 µM) | < 0.2 µg/mL | – | 0.39 µg/mL (≈ 0.667 µM) | 0.2 µg/mL (≈ 0.342 µM) | < 0.2 µg/mL | 0.78 µg/mL (≈ 1.33 µM) | 3.12 µg/mL (≈ 5.34 µM) | 1.56 µg/mL (≈ 2.67 µM) | 0.78 µg/mL (≈ 1.33 µM) | 3.12 µg/mL (≈ 5.34 µM) | 6.25 µg/mL (≈ 10.7 µM) | 3.12 µg/mL (≈ 5.34 µM) | 100 µg/mL (≈ 171 µM) | 3.12 µg/mL (≈ 5.34 µM) | –
4 | NCC[C@H](O)C(=O)N[C@@H]1C[C@H](N)[C@@H](O[C@H]2O[C@H](CN)[C@@H](O)[C@H](O)[C@H]2O)[C@H](O)[C@H]1O[C@H]1O[C@H](CO)[C@@H](O)[C@H](N)[C@H]1O [Amikacin, amikacin, reference compound] | – | – | > 100 µg/mL | 0.39 µg/mL (≈ 0.666 µM) | 1.56 µg/mL (≈ 2.66 µM) | – | – | 1.56 µg/mL (≈ 2.66 µM) | 1.56 µg/mL (≈ 2.66 µM) | – | – | – | 3.12 µg/mL (≈ 5.33 µM) | 1.56 µg/mL (≈ 2.66 µM) | 3.12 µg/mL (≈ 5.33 µM) | 1.56 µg/mL (≈ 2.66 µM) | – | 50 µg/mL (≈ 85.4 µM) | 100 µg/mL (≈ 171 µM) | > 300 mg/kg
5 | NC[C@@H]1CC[C@@H](N)[C@@H](O[C@H]2[C@H](F)[C@@H](O[C@H]3O[C@H](CO)[C@@H](O)[C@H](N)[C@H]3O)[C@H](N)C[C@@H]2N)O1 [Compound 5F-DKB, 5,3',4'-trideoxy-5-fluorokanamycin B, reference compound] | – | – | 3.12 µg/mL (≈ 6.88 µM) | – | 6.25 µg/mL (≈ 13.8 µM) | 3.12 µg/mL (≈ 6.88 µM) | – | 3.12 µg/mL (≈ 6.88 µM) | – | – | – | 6.25 µg/mL (≈ 13.8 µM) | 6.25 µg/mL (≈ 13.8 µM) | – | – | – | – | – | – | ~135 mg/kg
6 | NCC[C@H](O)C(=O)N[C@@H]1C[C@H](N)[C@@H](O[C@H]2O[C@H](CN)CC[C@H]2N)[C@H](F)[C@H]1O[C@H]1O[C@H](CO)[C@@H](O)[C@H](N)[C@H]1O [Compound 5F-DKB-AHB, 1-N-[4-amino-2-(S)-hydroxybutyryl]-5,3',4'-trideoxy-5-fluorokanamycin B, reference compound] | – | – | 1.56 µg/mL (≈ 2.81 µM) | < 0.2 µg/mL | – | < 0.2 µg/mL | – | 0.39 µg/mL (≈ 0.703 µM) | 0.39 µg/mL (≈ 0.703 µM) | < 0.2 µg/mL | – | – | 0.78 µg/mL (≈ 1.41 µM) | – | 3.12 µg/mL (≈ 5.63 µM) | 0.39 µg/mL (≈ 0.703 µM) | – | – | 12.5 µg/mL (≈ 22.5 µM) | –
7 | NC[C@H]1O[C@H](O[C@H]2[C@H](F)[C@@H](O[C@H]3O[C@H](CO)[C@@H](O)[C@H](N)[C@H]3O)[C@H](N)C[C@@H]2N)[C@H](N)C[C@@H]1O [Compound 5F-TOB, 5,3'-dideoxy-5-fluorokanamycin B, reference compound] | – | – | – | < 0.2 µg/mL | – | – | – | – | – | – | – | – | 3.12 µg/mL (≈ 6.65 µM) | – | – | 3.12 µg/mL (≈ 6.65 µM) | – | – | – | ~180 mg/kg
